Measured values reported in patent publication US20100204460A1, “NATURAL BRASSINOSTEROIDS FOR USE FOR TREATING HYPERPROLIFERATION, TREATING PROLIFERATIVE DISEASES AND REDUCING ADVERSE EFFECTS OF STEROID DYSFUNCTION IN MAMMALS, PHARMACEUTICAL COMPOSITION AND ITS USE” (priority 2007, published 2010).
Where two headings read alike, the source gives them in different places.

Assays:
[1] = tested on: normal and cancer cell lines of different histopathological origin; experiment: Calcein AM cytotoxicity assay, summary statements over the cell line panel; type: cell-based; conditions: versus 28-homobrassinolide 2
Protocol: Stock solutions ([…]) were prepared by dissolving relevant quantity of substance in DMSO cultivation media (DMEM, RPMI 1640, F-12 medium), fetal bovine serum (FBS), L-glutamine, penicillin, and streptomycin were purchased from Sigma (MO, USA). 3-(4,5-Dimethylthiazol-2-yl)-2,5-diphenyltetrazolium bromide (MTT) was from Serva Electrophoresis (Heidelberg, Germany). Monoclonal mouse anti-bromodeoxyuridine (BrdU) intibody was obtained from DakoCytomation (Glostrup, Denmark). Calcein AM was obtained from PAA Laboratories GmbH (Pasching, Austria). The screening cell lines (T-lymphoblastic leukaemia cell line CEM; breast carcinoma cell line MCF-7 (estrogen-sensitive), breast adenocarcinoma cell line MDA-MB 468 (cell lines LNCaP (androgen-sensitive), prostate carcinoma cell line DU-145 ([…]), lung carcinoma cell line A-549, chronic myelogenous leukemia cell line K562, multiple myeloma cell line RPMI 8226, cervical carcinoma cell line HeLa, malignant human melanoma cell line G361, osteosarcoma cell line HOS, and normal human fibroblasts (BJ) were obtained from the American Type Culture Collection (Manassas, Va., USA). MCF-7 cells were cultured in F-12 medium (Sigma, MO, USA). LNCaP cells were cultured in RPMI 1640 medium (GIBCO, USA). All other cells were cultured in DMEM medium (Sigma, MO, USA). All used media were supplemented with 10% heat-inactivated fetal bovine serum, 2 mmol/L L-glutamine, 1% penicillin/streptomycin. The cell lines were maintained under standard cell culture conditions at 37° C. and 5% CO2 in a humid environment. Cells were subcultured twice or three times a week using the standard trypsinization procedure (Sigma, USA).
The cell suspension of approximate density of 1.25×10^5 cells/mL was redistributed into 96-well microtitre plates and after 12 h of stabilization the tested Brassinosteroids (BRs) were added in different concentrations. BRs were dissolved in DMSO. Control cultures were treated with DMSO alone. The final concentration of DMSO in the reaction mixture never exceeded 1%. Tested compounds in given concentrations were added at time zero in 20 μL aliquots to the microtiter plate wells. Usually, each test compound was evaluated at six 4-fold dilutions. In routine testing, the highest well concentration was 50 μmol, but it can be the matter of change dependent on the agent. Cultivation proceeds 96 h at 37° C., the cells were incubated with Calcein AM solution (Molecular Probes) for 1 h. Fluorescence (OD) of viable cells was quantified with Fluoroscan Ascent (Microsystems). The cell survival (IC50) was calculated using the following equation: IC50=(ODdrug exposed well/mean ODcontrol wells)×100%. Each compound was tested in triplicates and the test was repeated at least 3 times. The IC50 value, corresponding to drug concentration lethal to 50% of the tumor cells, was calculated from the obtained dose response curves.
We investigated effects of brassinosteroid on viability of normal and cancer cell lines of different histopathological origin. To evaluate the cytotoxic properties of several BRs and some related steroids, we used T-lymphoblastic leukaemia cell line CEM, breast carcinoma cell line MCF-7, lung carcinoma cell line A-549, chronic myeloid leukaemia cell line K562, multiple myeloma cell line RPMI 8226, cervical carcinoma cell line HeLa, malignant melanoma cell line G361, osteosarcoma cell line HOS, and normal human fibroblasts BJ. The cells were exposed to six 4-fold dilutions of each drug for 72 h to determinate number of surviving cells.

[2] = tested on: herpes simplex virus type 1 (HSV-1); conditions: cited from earlier work
measles virus (MV) = conditions: cited from earlier work
arena viruses = conditions: cited from earlier work
[3] = tested on: cultured mouse hybridoma cells; conditions: cited from earlier work; for density of viable cells / growth: mouse hybridoma cells, concentrations of 10^−13 mol/L and 10^−12 mol/L

Q: For `CC[C@@H](C(C)C)[C@@H](O)[C@H](O)[C@@H](C)[C@H]1CC[C@H]2[C@@H]3CC(=O)[C@H]4C[C@H](O)[C@H](O)C[C@]4(C)[C@H]3CC[C@]12C` [Brassinosteroid 9, 28-Homocastasterone], which “strength of growth inhibitory response relative to 28-homobrassinolide 2” value [1] is on record?
A: about 3 times

Q: And the “in vitro antiviral activity” value [2]?
A: in vitro antiviral activity

Q: What about the “in vitro antiviral activity” value (measles virus (MV)) of the same compound?
A: in vitro antiviral activity

Q: And the “in vitro antiviral activity” value (arena viruses)?
A: in vitro antiviral activity

Q: Which results are given for `CC(C)[C@@H](C)[C@@H](O)[C@H](O)[C@@H](C)[C@H]1CC[C@H]2[C@@H]3COC(=O)[C@H]4C[C@H](O)[C@H](O)C[C@]4(C)[C@H]3CC[C@]12C` [Brassinosteroid 6, 24-Epibrassinolide]?
A: S-phase cells ([3]; cultured mouse hybridoma cells): decrease of S-phase cells; fraction of the cells in G0/G1 phase ([3]; cultured mouse hybridoma cells): increase in the fraction of the cells in G0/G1 phase; intracellular antibody level ([3]; cultured mouse hybridoma cells): decrease of intracellular antibody level; value of mitochondrial membrane potential ([3]; cultured mouse hybridoma cells): increase in the value of mitochondrial membrane potential; density of viable cells / growth ([3]; listed as 6): significant positive effect; density of viable cells / growth ([3]; listed as 24-epibrassinolide): significantly higher
